Data reported in ChEMBL document CHEMBL4145573, “Antinociceptive Diterpenoids from the Leaves and Twigs of Rhododendron decorum” (2018).
Active and inactive are the calls of the source. No cut-off for these calls is given here.

What was measured:
Mus musculus [1] = assay: Antinociceptive activity in Kunming mouse assessed as inhibition of acetic acid-induced writhes at 10 mg/kg, ip pretreated for 15 mins followed by acetic acid challenge measured for 30 mins; assay type: functional, organism-based
Mus musculus [2] = assay: Antinociceptive activity in Kunming mouse assessed as inhibition of acetic acid-induced writhes at 0.8 mg/kg, ip pretreated for 15 mins followed by acetic acid challenge measured for 30 mins relative to control; assay type: functional
Mus musculus [3] = assay: Antinociceptive activity in Kunming mouse assessed as inhibition of acetic acid-induced writhes at 0.08 mg/kg, ip pretreated for 15 mins followed by acetic acid challenge measured for 30 mins relative to control; assay type: functional

SMILES: C=C1C[C@]23C[C@H]1CC[C@H]2C(=C)[C@@H]1C[C@H](O[C@@H]2O[C@H](CO)[C@@H](O)[C@H](O)[C@H]2O)C(C)(C)[C@@]1(O)[C@H](O)C3
- inhibition (Mus musculus [1]): Active

SMILES: CC1(C)[C@@H](O)[C@H](O)[C@H]2[C@](C)(O)[C@@H]3CC[C@]4(O)C[C@@]3(C[C@@H](O)[C@@]21O)C[C@@]4(C)O
- inhibition in vivo at 0.8 mg/kg (Mus musculus [2]): 68%

SMILES: C=C1[C@H]2CC[C@]3(O)C[C@@]2(C[C@@H](O)[C@@]2(O)[C@H]1C[C@H](O)C2(C)C)C[C@@]3(C)O
- inhibition (Mus musculus [1]): Active

SMILES: CC1(C)[C@H]2O[C@H]2[C@H]2[C@](C)(O)[C@@H]3CC[C@]4(O)C[C@@]3(C[C@@H](O)[C@@]21O)C[C@@]4(C)O
- inhibition in vivo at 0.08 mg/kg (Mus musculus [3]): 78%

SMILES: C=C1[C@H]2C[C@@H](O)C(C)(C)[C@H](O)[C@@H]2C[C@@]23C[C@@](O)(CC[C@@H]12)[C@](C)(O)C3
- inhibition (Mus musculus [1]): Active

SMILES: CN1CC[C@]23c4c5ccc(O)c4O[C@H]2[C@@H](O)C=C[C@H]3[C@H]1C5 [MORPHINE]
- inhibition in vivo at 0.8 mg/kg (Mus musculus [2]): 86%

SMILES: C=C1[C@@H]2[C@@H](O)[C@H](O)C(C)(C)[C@@]2(O)[C@H](O)C[C@@]23C[C@@](O)(CC[C@@H]12)[C@](C)(O)C3
- inhibition (Mus musculus [1]): Active
